According to US12201610B2, “Compositions comprising aticaprant” (Janssen Pharmaceuticals, Inc., priority 2022, dated 2025):

Test system: subjects with MDD
Test: SMDDS total score (Example 6)
Type: in vivo, human
Details: 10 mg; Treatment Week 6; 59 subjects analyzed
Excerpt: SMDDS is a subjective rating of the patient. The SMDDS is a 16-item PRO measure. Each item is rated by the subject according to a 5-point Likert scale. Subjects respond to each question using a rating scale between 0 (“Not at all” or “Never”) to 4 (“Extremely” or “Always”). The total score ranges […]. The SMDDS uses a 7-day recall period and verbal rating scales. Higher score indicates more severe depressive symptomatology.
iv. To investigate the effect of aticaprant on symptoms of depression using the Clinical Global Impression-Severity (CGI-S), the patient reported Symptoms of Major Depressive Disorder Scale (SMDDS) and the self-assessment of treatment experience (SATE).
• (i) Depression: Montgomery-Åsberg Depression Rating Scale (MADRS), Clinical Global Impression-Severity (CGI-S), Symptoms of Major Depressive Disorder Scale (SMDDS), and Self-assessment of treatment experience (SATE) • (ii) Anhedonia: Snaith-Hamilton Pleasure Scale (SHAPS) • (iii) Anxiety: Structured Interview Guide for the Hamilton Anxiety scale (SIGH-A) and HAM-A6 • (iv) Effects on Cognition: The Cognitive and Physical Functioning Questionnaire (CPFQ) • (v) Safety assessments

SMILES: Cc1cc(C)cc(C2CCCN2Cc2ccc(Oc3ccc(C(N)=O)cc3F)cc2)c1 (stereo not shown) [aticaprant, 3-fluoro-4-4-2-(3,5-dimethylphenyl)pyrrolidin-1-yl-methylphenoxybenzamide]
- Change from Treatment Baseline in SMDDS Total Score, Arithmetic Mean (SD): −8.03 ± 9.957 Scores on a scale
